Measured values taken from ChEMBL document CHEMBL1201862, “PubChem BioAssay data set” (2004).
Each block holds one compound with its values, some of them ahead of it. The source made the active and inactive calls.

What was measured:
[1] = biological target: T1, Corticotropin-releasing factor receptor 2/Corticotropin-releasing factor-binding protein (Homo sapiens, UniProt P24387+Q13324); assay: Dose Response confirmation of uHTS hits for small molecule antagonists of the CRF-binding protein and CRF-R2 receptor complex.; format: functional; settings: read-out: IC50_Mean
T1 sequence (Q13324 whole entry): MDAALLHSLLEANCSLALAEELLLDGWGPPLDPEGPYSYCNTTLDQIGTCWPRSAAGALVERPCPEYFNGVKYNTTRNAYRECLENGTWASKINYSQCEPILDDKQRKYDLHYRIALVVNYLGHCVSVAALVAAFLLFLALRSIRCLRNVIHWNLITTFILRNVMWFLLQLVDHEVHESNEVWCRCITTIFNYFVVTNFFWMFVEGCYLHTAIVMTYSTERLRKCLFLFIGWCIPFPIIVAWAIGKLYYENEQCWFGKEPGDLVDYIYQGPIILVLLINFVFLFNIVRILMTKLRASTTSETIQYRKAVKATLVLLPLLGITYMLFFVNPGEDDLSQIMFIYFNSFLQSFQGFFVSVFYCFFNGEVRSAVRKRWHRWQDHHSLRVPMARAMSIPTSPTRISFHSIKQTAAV
T1 sequence (P24387 whole entry): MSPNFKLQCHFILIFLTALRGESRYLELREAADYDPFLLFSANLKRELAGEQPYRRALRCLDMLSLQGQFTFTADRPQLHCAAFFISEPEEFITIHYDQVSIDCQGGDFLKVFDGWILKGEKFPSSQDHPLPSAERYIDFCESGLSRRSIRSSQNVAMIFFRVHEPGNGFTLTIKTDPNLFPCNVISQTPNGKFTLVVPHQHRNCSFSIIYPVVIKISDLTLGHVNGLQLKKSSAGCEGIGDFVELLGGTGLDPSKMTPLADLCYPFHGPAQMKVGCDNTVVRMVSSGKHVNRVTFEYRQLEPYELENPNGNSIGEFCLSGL

[2] = biological target: T1, Corticotropin-releasing factor receptor 2/Corticotropin-releasing factor-binding protein; assay: activators of CRF receptor 2 with binding protein – uHTS hits, confirmation (AID 602473); format: functional; settings: read-out: EC50_Mean
[3] = blockers of CRF-binding protein–CRF-R2 complex – cell-based, uHTS hits, 384-well, dose response (AID 651639); format: functional, Homo sapiens; settings: read-out: IC50_Mean
[4] = biological target: Luciferin 4-monooxygenase (Photinus pyralis, UniProt P08659); assay: inhibition of purified Photinus pyralis luciferase – biochemical, luminescence, dose response (AID 1891)
[5] = Luminescence Cell-Based Dose Confirmation HTS to Identify Inhibitors of Platelet Dense Granule Release. [Related pubchem assays: 1663 (Primary HTS), 1678 (Summary of Project)]; format: functional
HEK293 = assay: EBV LMP1 TES2 canonical NF-kB signalling blockers – cell-based, HEK293, luciferase, cherry-pick, dose response (AID 588343); format: functional; settings: Homo sapiens
[6] = inhibition of ARNT PAS-B/TACC3 complex formation – biochemical, AlphaScreen, cherry-picked samples, confirmation (AID 651703); format: functional, Homo sapiens;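 note: His-tagged ARNT PAS-B domain paired with GST-TACC3 E629A dimer coactivator fragment; potency of inhibitors that break up the complex and lower AlphaScreen signal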
[7] = A549 cell cytotoxicity, dose response, cytotoxicity control, plate reader, cherry-pick, antagonist series (AID 743412); format: functional, cell-based
[8] = toxicity toward HepG2 liver cells – cell-based, plate reader, cherry-pick, antagonist series, cytotoxicity control, dose response (AID 743416); format: functional
[9] = blockers of bursicon-stimulated LGR2 cAMP reporter – cell-based, HEK293, CRE-luciferase reporter, cherry pick, set 2, dose response (AID 743343); format: functional;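 note: transfected cells were stimulated with diluted bursicon conditioned medium after compound addition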
[10] = blockade of melanocortin 4 receptor signaling – cell-based, plate reader, cherry pick, counter-screen for LGR2 antagonist project, dose response (AID 743444); format: functional;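 note: transfected HEK 293 cells stimulated with alpha-MSH peptide; potency of inhibitors of the alpha-MSH evoked signal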
[11] = viability loss in HEK293 cells – cell-based, plate reader, cherry-picked samples, cytotoxicity control, dose response (AID 743446); format: functional
[12] = biological target: T2, Sentrin-specific protease 8 (Homo sapiens, UniProt Q96LD8); format: functional
T2 sequence (Q96LD8 whole entry): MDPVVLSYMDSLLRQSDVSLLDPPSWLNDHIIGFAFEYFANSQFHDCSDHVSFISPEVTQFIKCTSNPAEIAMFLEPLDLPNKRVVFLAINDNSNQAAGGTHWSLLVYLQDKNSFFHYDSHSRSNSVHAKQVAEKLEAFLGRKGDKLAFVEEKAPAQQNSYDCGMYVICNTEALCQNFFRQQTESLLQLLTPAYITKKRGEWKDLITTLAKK

[13] = biological target: T2, Sentrin-specific protease 8; format: functional; remark: listed apart in the source
[14] = biological target: Nuclear receptor subfamily 5 group A member 2 (Homo sapiens, UniProt O00482); format: functional, cell-based;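 note: HEK293T cells transfected with LRH-1 and a StAR promoter luciferase reporter; potency for inhibitors that lower LRH-1 driven reporter light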
Steroidogenic factor 1 = Steroidogenic factor 1 (Homo sapiens, UniProt Q13285); assay: Counterscreen for inverse agonists of the liver receptor homolog-1 (LRH-1; NR5A2): Luminescence-based cell-based high throughput dose response assay to identify inverse agonists of the Steroidogenic Factor 1 Nuclear Receptor (SF1; NR5A1).; format: functional
[15] = nonselective StAR promoter luciferase inhibitors – cell-based, luminescence, luciferase reporter, counter-screen for LRH-1 inverse agonist project, dose response (AID 651969); format: functional
Aminopeptidase N = biological target: T3, Aminopeptidase N (Plasmodium falciparum FcB1/Columbia, UniProt O96935); assay: malaria alanyl aminopeptidase activity blockers – biochemical, fluorogenic H-Leu-NHMec substrate, 1536-well (AID 1445); set-up: species or system Plasmodium falciparum 3D7, 3D7
T3 sequence (O96935 whole entry): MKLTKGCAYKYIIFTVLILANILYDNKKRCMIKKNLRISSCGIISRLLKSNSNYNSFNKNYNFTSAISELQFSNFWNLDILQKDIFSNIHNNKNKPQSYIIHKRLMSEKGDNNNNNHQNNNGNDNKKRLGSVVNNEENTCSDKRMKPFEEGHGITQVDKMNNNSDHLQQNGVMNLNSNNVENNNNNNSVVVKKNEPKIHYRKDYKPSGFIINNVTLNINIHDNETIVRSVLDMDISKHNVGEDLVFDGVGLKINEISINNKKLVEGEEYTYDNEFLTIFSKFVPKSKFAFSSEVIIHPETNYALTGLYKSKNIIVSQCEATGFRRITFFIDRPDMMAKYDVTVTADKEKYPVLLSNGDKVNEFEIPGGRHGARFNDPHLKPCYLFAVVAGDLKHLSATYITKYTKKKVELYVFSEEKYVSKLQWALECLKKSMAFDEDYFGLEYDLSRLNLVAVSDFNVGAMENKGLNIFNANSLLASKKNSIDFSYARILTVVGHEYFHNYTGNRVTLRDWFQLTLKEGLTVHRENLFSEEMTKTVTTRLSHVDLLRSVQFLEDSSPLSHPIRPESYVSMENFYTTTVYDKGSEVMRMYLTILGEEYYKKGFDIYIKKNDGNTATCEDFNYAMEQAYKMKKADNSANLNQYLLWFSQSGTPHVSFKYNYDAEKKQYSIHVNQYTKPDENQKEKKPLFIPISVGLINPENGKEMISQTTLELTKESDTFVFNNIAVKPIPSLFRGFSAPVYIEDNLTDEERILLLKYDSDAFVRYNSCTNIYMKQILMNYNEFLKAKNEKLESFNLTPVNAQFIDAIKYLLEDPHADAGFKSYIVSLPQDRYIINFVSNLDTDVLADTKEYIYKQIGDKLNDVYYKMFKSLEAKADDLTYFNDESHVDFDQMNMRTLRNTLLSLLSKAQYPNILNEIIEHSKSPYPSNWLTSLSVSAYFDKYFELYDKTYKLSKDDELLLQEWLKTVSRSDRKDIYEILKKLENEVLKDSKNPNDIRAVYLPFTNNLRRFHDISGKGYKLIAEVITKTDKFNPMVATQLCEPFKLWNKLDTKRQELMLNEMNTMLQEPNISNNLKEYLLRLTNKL

Large T antigen = Large T antigen (Simian virus 40, UniProt P03070); format: functional, Betapolyomavirus macacae;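 note: Confirmatory-stage PubChem screen for compounds that inhibit SV40 T antigen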
Genome polyprotein = Genome polyprotein (dengue virus type 2, UniProt P29990); assay: flavivirus cap methylation enzyme inhibition – biochemical, confirmation dose response, primary screen (AID 588689); format: functional
[16] = biological target: T4, Carboxy-terminal domain RNA polymerase II polypeptide A small phosphatase 1 (Homo sapiens, UniProt Q9GZU7); assay: CTDSP1 inhibitors, concentration-response, biochemical, absorbance readout, ultra-high-throughput screen actives (AID 540297); format: functional
T4 sequence (Q9GZU7 whole entry): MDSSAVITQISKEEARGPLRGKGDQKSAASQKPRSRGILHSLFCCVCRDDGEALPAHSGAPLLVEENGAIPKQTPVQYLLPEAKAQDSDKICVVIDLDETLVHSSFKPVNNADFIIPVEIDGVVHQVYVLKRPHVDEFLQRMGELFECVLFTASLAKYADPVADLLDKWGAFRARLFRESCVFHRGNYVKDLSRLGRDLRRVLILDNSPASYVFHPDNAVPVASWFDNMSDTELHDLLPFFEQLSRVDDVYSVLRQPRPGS

[17] = biological target: 26S proteasome non-ATPase regulatory subunit 14 (Homo sapiens, UniProt O00487); assay: inhibition of proteasome subunit RPN11 – biochemical, fluorescence polarization, uHTS hits, confirmation (AID 602368); format: functional
[18] = biological target: 72 kDa type IV collagenase (Homo sapiens, UniProt P08253); assay: Dose Response validation of uHTS RPN11 inhibitor hits using a MMP-2 Fluorescence assay.; format: functional
Prothrombin = Prothrombin (Bos taurus, UniProt P00735); assay: thrombin protease inhibitors – biochemical, fluorescence polarization, uHTS hits, dose response (AID 602369); format: functional
[19] = biological target: T5, Rac GTPase-activating protein 1 (Homo sapiens, UniProt Q9H0H5); assay: blockers of MgcRacGAP-driven Rac1 GTP hydrolysis – biochemical, ADP Hunter fluorescence, primary and confirmatory, confirmation (AID 624330); format: functional
T5 sequence (Q9H0H5 whole entry): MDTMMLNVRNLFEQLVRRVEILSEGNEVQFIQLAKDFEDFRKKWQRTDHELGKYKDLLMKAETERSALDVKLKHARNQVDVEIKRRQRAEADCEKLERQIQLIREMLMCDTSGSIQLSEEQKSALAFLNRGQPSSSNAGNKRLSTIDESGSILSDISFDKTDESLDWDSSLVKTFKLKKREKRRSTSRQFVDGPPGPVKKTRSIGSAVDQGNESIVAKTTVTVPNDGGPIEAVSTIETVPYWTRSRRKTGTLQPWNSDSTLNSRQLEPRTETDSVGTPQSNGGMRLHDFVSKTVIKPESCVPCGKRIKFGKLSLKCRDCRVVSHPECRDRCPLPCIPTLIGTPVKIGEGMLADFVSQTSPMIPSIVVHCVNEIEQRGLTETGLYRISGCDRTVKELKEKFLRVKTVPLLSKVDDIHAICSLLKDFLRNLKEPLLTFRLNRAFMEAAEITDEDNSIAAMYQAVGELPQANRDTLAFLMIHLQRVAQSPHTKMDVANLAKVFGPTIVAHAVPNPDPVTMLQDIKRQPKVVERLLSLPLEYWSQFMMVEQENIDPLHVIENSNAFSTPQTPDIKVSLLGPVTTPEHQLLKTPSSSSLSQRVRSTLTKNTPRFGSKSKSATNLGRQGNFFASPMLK

[20] = Fluorescence-based cell-based high throughput dose response assay for inhibitors of the interaction of nucleotide-binding oligomerization domain containing 2 (NOD2) and the receptor-interacting serine-threonine kinase 2 (RIPK2).; format: functional; settings: Homo sapiens
[21] = biological target: T6, Mitochondrial peptide methionine sulfoxide reductase (Bos taurus, UniProt P54149); assay: Absorbance-based biochemical high throughput dose response assay for activators of Methionine sulfoxide reductase A (MsrA).; format: functional
T6 sequence (P54149 whole entry): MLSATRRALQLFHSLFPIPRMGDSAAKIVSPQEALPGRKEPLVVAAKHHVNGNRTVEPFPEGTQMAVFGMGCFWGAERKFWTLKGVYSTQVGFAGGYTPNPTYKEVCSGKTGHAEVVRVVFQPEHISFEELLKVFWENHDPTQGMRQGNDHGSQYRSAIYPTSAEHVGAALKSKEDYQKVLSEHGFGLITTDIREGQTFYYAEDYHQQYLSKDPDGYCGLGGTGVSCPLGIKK

Sequence of Large T antigen (P03070 whole entry): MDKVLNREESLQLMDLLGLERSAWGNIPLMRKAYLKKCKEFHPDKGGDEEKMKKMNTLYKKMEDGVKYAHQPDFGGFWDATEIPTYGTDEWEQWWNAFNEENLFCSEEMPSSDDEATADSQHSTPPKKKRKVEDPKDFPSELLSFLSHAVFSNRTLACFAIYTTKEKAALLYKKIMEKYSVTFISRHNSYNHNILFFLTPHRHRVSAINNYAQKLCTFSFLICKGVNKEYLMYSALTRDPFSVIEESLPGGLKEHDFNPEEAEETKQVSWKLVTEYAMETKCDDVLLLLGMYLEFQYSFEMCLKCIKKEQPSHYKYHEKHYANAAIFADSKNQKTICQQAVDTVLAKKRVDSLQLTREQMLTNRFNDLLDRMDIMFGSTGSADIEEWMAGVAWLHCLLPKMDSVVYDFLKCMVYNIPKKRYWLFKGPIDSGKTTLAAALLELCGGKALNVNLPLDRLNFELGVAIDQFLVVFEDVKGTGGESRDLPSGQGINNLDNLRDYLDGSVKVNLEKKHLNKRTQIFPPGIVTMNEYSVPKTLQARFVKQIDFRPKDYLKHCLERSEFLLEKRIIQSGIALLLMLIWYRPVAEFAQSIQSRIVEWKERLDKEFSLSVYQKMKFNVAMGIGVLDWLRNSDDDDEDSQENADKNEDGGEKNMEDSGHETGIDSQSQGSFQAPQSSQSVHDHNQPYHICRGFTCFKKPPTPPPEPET
Sequence of Steroidogenic factor 1 (Q13285 whole entry): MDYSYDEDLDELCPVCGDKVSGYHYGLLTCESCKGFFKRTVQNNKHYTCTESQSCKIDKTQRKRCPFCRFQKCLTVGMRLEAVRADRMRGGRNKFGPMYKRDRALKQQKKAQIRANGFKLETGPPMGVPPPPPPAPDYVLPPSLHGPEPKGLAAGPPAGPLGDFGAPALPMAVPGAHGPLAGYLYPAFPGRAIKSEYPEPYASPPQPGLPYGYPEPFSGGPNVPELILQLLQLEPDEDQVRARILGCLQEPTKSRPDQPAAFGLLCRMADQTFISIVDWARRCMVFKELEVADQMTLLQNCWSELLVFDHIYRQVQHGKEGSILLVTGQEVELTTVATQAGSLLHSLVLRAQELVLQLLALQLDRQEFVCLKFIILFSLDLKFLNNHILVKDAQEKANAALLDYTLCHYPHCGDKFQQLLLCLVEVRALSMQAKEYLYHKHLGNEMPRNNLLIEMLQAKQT
Sequence of Nuclear receptor subfamily 5 group A member 2 (O00482 whole entry): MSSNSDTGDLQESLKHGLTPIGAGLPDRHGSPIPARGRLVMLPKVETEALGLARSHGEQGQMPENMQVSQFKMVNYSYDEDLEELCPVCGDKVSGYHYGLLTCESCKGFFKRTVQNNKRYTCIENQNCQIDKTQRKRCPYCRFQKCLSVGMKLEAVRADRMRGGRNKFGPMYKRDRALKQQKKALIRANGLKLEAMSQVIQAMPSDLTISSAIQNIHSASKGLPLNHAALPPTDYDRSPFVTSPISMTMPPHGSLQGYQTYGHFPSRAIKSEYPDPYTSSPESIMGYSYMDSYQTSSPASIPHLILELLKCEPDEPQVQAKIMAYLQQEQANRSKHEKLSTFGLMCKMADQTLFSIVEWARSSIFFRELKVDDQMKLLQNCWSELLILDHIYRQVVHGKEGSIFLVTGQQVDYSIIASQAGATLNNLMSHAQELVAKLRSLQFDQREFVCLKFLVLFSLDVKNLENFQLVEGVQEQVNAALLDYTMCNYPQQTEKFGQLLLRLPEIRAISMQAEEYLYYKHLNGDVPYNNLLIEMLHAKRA
Sequence of Luciferin 4-monooxygenase (P08659 whole entry): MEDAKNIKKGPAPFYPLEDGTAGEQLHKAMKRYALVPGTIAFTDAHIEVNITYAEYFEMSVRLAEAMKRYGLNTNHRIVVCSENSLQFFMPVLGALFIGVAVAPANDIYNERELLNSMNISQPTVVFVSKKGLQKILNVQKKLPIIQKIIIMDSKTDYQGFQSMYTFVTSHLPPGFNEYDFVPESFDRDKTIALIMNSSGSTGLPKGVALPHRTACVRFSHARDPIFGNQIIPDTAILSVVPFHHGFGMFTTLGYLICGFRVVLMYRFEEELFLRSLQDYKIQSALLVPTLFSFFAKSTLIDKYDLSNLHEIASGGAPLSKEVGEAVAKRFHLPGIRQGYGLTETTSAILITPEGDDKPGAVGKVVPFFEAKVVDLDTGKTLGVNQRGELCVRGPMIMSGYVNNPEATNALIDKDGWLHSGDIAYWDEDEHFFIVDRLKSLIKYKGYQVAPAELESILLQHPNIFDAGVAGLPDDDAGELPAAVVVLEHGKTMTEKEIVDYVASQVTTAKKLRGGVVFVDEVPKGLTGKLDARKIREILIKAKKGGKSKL
Sequence of Genome polyprotein (P29990 2492-3391 limits assumed): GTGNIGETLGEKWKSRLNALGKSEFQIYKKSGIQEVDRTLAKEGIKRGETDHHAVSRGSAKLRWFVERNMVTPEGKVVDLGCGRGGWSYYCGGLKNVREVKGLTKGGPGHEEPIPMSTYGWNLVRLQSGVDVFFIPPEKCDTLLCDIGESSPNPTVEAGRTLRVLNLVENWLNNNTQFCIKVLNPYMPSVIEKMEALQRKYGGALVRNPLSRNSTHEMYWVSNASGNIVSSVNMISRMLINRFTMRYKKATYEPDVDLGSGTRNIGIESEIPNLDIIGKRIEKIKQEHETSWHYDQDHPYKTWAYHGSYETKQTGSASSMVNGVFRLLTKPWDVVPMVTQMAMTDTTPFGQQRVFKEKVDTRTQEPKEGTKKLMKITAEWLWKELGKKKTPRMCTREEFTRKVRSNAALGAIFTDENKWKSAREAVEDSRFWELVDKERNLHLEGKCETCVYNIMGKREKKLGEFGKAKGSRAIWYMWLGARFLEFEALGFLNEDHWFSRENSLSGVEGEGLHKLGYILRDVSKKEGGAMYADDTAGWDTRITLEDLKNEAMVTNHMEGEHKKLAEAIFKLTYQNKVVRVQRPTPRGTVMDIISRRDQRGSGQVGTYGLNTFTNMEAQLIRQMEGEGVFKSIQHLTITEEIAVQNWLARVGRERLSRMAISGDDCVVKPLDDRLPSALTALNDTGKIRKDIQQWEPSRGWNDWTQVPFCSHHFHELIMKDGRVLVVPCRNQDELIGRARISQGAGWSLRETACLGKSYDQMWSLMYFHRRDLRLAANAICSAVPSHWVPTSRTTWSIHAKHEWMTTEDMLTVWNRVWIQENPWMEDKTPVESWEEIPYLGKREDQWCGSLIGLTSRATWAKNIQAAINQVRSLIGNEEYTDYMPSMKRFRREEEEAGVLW
Sequence of 26S proteasome non-ATPase regulatory subunit 14 (O00487 whole entry): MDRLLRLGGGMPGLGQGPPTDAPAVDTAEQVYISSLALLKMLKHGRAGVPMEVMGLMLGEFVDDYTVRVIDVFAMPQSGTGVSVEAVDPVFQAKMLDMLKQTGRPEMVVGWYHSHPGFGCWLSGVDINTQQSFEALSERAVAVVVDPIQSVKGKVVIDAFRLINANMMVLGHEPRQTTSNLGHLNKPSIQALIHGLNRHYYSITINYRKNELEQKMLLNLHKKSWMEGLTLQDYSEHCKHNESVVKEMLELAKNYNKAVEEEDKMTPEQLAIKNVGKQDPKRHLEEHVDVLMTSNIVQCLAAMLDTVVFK
Sequence of 72 kDa type IV collagenase (P08253 whole entry): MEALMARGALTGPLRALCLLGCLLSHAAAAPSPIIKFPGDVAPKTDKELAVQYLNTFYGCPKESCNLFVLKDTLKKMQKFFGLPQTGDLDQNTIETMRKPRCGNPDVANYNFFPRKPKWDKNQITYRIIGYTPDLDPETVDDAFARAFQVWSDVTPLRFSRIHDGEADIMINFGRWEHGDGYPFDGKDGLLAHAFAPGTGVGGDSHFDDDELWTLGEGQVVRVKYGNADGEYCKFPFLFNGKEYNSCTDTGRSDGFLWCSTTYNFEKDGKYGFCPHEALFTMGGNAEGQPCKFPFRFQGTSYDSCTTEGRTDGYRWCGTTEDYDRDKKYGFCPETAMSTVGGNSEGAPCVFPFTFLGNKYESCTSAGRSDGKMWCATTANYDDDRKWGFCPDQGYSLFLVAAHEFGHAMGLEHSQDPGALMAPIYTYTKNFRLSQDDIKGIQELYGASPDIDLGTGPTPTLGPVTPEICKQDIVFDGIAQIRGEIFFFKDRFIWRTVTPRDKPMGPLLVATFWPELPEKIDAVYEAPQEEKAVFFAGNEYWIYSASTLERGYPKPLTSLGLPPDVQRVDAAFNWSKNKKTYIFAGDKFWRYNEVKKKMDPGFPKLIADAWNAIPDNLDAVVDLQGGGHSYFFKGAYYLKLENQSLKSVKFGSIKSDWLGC

IC50 [1]: < 0.368 µM (active)
EC50 [2]: > 53 µM (inactive)
IC50 [3]: 7.38 µM (active)
Compound: O=C(Nc1nnc(S(=O)(=O)Nc2ccccc2)s1)c1ccccc1Cl

Compound: Cc1ccc2[nH]c(-c3ccccn3)nc2c1
EC50 [4]: 2.78 µM (active)
EC50 [5]: 14.7 µM (active)
AC50 (HEK293): 3.34 µM (active)
AC50 [6]: 76 µM (active)
AC50 [7]: 27.3 µM (active)
AC50 [8]: 34.3 µM (active)
AC50 [9]: 5.45 µM (active)
AC50 [10]: 6.67 µM (active)
AC50 [11]: > 52 µM (inactive)

Compound: Cc1n[nH]c(O)c1C(c1c(C)n[nH]c1O)c1cn(C)c2ccccc12
IC50 [12]: 11.9 µM (active)
IC50 [13]: 11.2 µM (active)

Compound: C[C@H](CO)N1C[C@H](C)[C@H](CN(C)Cc2ccncc2)Oc2cc(-c3ccccc3F)ccc2S1(=O)=O
IC50 [14]: 1.33 µM (active)
IC50 (Steroidogenic factor 1): 1.33 µM (active)
IC50 [15]: 15.5 µM (inactive)

IC50 (Aminopeptidase N): 74.9 µM (active)
IC50 (Large T antigen): 35.2 µM (active)
IC50 (Genome polyprotein): 6.33 µM (active)
IC50 [16]: 5.86 µM (active)
IC50 [1]: < 0.368 µM (active)
IC50 [17]: 17.1 µM (active)
EC50 [2]: 10 µM (active)
IC50 [18]: > 100 µM (inactive)
IC50 (Prothrombin): > 100 µM (inactive)
IC50 [3]: 1.47 µM (active)
IC50 [19]: 85.9 µM (active)
Compound: O=C(O)c1ccc(COc2ccccc2C=C2C(=O)c3ccccc3C2=O)cc1

Compound: O=C(COc1ccc2c3c(c(=O)oc2c1)CCCC3)NCCCN1CCOCC1
IC50 [14]: 35.9 µM (inactive)
IC50 (Steroidogenic factor 1): 35.9 µM (inactive)
IC50 [15]: 35.9 µM (inactive)

Compound: O=C1/C(=C/c2ccccc2)CN(C(=O)CCN2CCOCC2)C/C1=C\c1ccccc1
IC50 [20]: 6.29 µM (active)

IC50 (Large T antigen): 9.15 µM (active)
EC50 [21]: > 104 µM (inactive)
Compound: COCCCn1c(=O)c2ccccc2n2c(S)nnc12
